Experimental data: US20260008784A1 (VASTHERA CO., LTD., priority 2022, published 2026)
Like-named read-outs stand apart in the source and are kept apart here.

Legend:
[1] = Cytotoxicity test, liver cell; conditions: hepatocytes
Procedure: (§6) Cytotoxicity tests were performed against vascular endothelial cells, vascular smooth muscle cells and hepatocytes. After treatment with ascending concentrations of each compound, the concentration of test compound corresponding to 50% cell viability (CC50) was measured.

[2] = Cytotoxicity assay (WST-1), endothelial cell; conditions: human, human aortic endothelial cells (HAEC)
Procedure: (§7) For cytotoxicity analysis, human aortic endothelial cells (HAEC) and smooth muscle cells (HASMC) were seeded in a 96-well culture plate at density of 4000 cells/well in a final volume of 100 μL. Cells were cultured for 24 h and serum-starved for an additional 18 h. Test compounds were serially diluted with EBM-2 culture medium, added to the plate at 100 μL/well, and further incubated for 24 h. The number of viable cells was measured using the WST-1 cell viability assay kit (Roche Diagnostics, USA). Cell number was expressed as absorbance values at 450 nm after subtracting the turbidity value at 600 nm. The absorbance values from three replicate wells were averaged.
(§8) After treatment with ascending concentrations of each compound, the concentration of test compound corresponding to 50% cell viability (CC50) was measured.

[3] = Cytotoxicity assay (WST-1), smooth muscle cell; conditions: human, human aortic smooth muscle cells (HASMC)
Procedure: as §7, §8

[4] = reference potential values of Trx and GSH for comparison; cited from earlier work
[5] = test system: yeast thioredoxin (Trx)/yeast Trx reductase (TR); assay: Peroxidase activity assay (H2O2 reduction, NADPH oxidation); assay type: biochemical; conditions: 50 μM test compound, 3 μM yeast Trx, 1.5 μM yeast TR, 250 μM NADPH, 1.2 mM H2O2, 30° C.; NADPH oxidized per minute
Procedure: Hydrogen peroxide (H2O2)-reducing peroxidase activity of compounds in present invention was performed as follows. Peroxyredoxin activity was measured in reaction mixture (200 μL volume) containing 50 mM HEPES buffer (pH 7.0), 1 mM EDTA, 250 μM NADPH, 3 μM yeast thioredoxin (Trx), 1.5 μM yeast Trx reductase (TR), 50 μM test compound, and 1.2 mM H2O2.
Reaction was initiated by adding H2O2 and the decrease in absorbance at 340 nm was measured using Agilent UV8453 spectrophotometry (Hewlett Packard, USA) at 30° C. for 12 min. Initial reaction rate is the amount of NADPH oxidized per minute calculated from slope of the linear part of curve.
The H2O2-reducing peroxidase activity of the test compounds in present invention was measured in a reaction mixture containing thioredoxin (Trx)/thioredoxin reductase (TR), respectively.

[6] = test system: Tyr 857 phosphorylation of PDGF receptor-β (PDGFRβ) in HASMC; assay: Immunoblot of PDGF-mediated signaling in PrxII knock-down HASMC; assay type: cell-based, human; conditions: HASMC depleted of PrxII expression, FIG. 2
Procedure: (§1) Cells were quickly washed in ice-cold phosphate-buffered saline (PBS) and lysed in extraction buffer containing 20 mM Hepes (pH 7.0), 1% Triton X-100, 150 mM NaCl, 10% glycerol, 1 mM EDTA, 2 mM EGTA, and 1 mM DTT, 5 mM Na3VO4, 5 mM NaF, 1 mM AEBSF, aprotinin (5 μg/mL), and leupeptin (5 μg/mL). After cen-trifugation at 12,000×g, the clarified cell extracts were used for immunoblotting. For re-blotting, the immunoblots were retrieved in a solution of 67 mM Tris (pH 6.7), 2% SDS, and 100 mM 2-mercaptoethanol at 60° C. for 30 min to remove antibodies and rinsed three times with a Tris-buffered saline (TBS) solution containing 1% Triton X-100. The retrieved membranes were subjected to new immunoblotting.
In human aortic smooth muscle cell (HASMC) and human pulmonary artery smooth muscle cell (PASMC) in which PrxII was knocked out by transfecting the PrxII siRNA, the ability of test compounds to replace the cellular function of PrxII was evaluated. That is, the efficacy of the new compounds was verified in terms of signaling pathways induced by PDGF that regulates the growth and migration of vascular smooth muscle cells in the aorta and pulmonary artery. Activation of PDGF-induced signaling pathway was analyzed by an immunoblot method using an antibody that specifically recognizes phosphorylation of Tyr 857, which is a major phosphorylation site on PDGF receptor (PDGFRβ).

[7] = in vitro; conditions: human
Procedure: as §7, §8

[8] = in vitro; conditions: human; remark: listed apart in the source
Procedure: as §7, §8

[9] = in vitro
Procedure: as §6

[10] = test system: Tyr 1175 phosphorylation of VEGF receptor-2 (VEGFR2) in HAEC; assay: Immunoblot of VEGF-mediated signaling in PrxII knock-down HAEC; assay type: cell-based, human; conditions: HAECs depleted of PrxII expression, FIG. 5
Procedure: as §1
In human aortic endothelial cell (HAEC) and human pulmonary artery endothelial cell (PAEC) in which PrxII was knocked out by transfecting the PrxII siRNA, the ability of test compounds to replace the cellular function of PrxII was evaluated. That is, the efficacy of the new compounds was verified in terms of signaling pathways induced by VEGF that regulates the growth and migration of vascular endothelial cells in the aorta and pulmonary artery. Activation of VEGF-induced signaling pathway was analyzed by an immunoblot method using an antibody that specifically recognizes phosphorylation of Tyr 1175, which is a major phosphorylation site on VEGF receptor-2 (VEGFR2).

[11] = test system: human aortic smooth muscle cell (HASMC); assay: PDGF-induced proliferation assay, HASMC (PrxII siRNA); assay type: cell-based; conditions: for Degree of HASMC proliferation: PDGF-BB 25 ng/mL, percent of untreated control
Procedure: (§2) HASMCs and PASMCs were transfected with a PrxII-specific siRNA using RNAi MAX transfection reagent according to manufacturer's protocol. After 24 hours, transfected cells (3,000 cells/well) were seeded in a 96-well culture plate. At 12 h after seeding, cells were serum-starved for additional 18 h in SmBM basal medium containing 0.5% FBS. Test compounds were serially diluted with the same basal medium containing 0.5% FBS, added to the cells ([…]), and incubated for 2 h. After treatment, cells were placed in fresh SmBM medium containing 0.5% FBS and PDGF-BB (25 ng/mL) for growth factor stimulation and further cultured for 24 h.
(§3) The degree of cell proliferation was measured using the Cell Titer-GLO kit ([…]). Data are the percent of luminescence intensity averaged from three replicate wells versus that of untreated control group.
(§4) In human aortic smooth muscle cell (HASMC) and human pulmonary artery smooth muscle cell (PASMC) in which PrxII was knocked out by transfecting the PrxII siRNA, the ability of test compounds to inhibit the PDGF-induced proliferation of vascular smooth muscle cells was evaluated. In Table 6, the degree of proliferation in the compound-treated groups is expressed as percent of the degree of proliferation in untreated control group. The concentrations of test compounds corresponding to 50% growth inhibition (IC50) is also listed.

[12] = test system: human pulmonary artery smooth muscle cell (PASMC); assay: PDGF-induced proliferation assay, PASMC (PrxII siRNA); assay type: cell-based; conditions: for Degree of PASMC proliferation: PDGF-BB 25 ng/mL, percent of untreated control
Procedure: as §2, §3, §4

[13] = test system: human aortic endothelial cell (HAEC); assay: VEGF-induced proliferation assay, HAEC (PrxII siRNA); assay type: cell-based; conditions: for Degree of HAEC proliferation: VEGF-A 25 ng/mL, percent of untreated control
Procedure: as §2, with “HAECs” for “HASMCs”, “PAECs” for “PASMCs”, “EBM” for “SmBM”, “VEGF-A” for “PDGF-BB”
as §3
(§5) In human aortic endothelial cell (HAEC) and human pulmonary artery endothelial cell (PAEC) in which PrxII was knocked out by transfecting the PrxII siRNA, the ability of test compounds to augment the VEGF-induced proliferation of vascular endothelial cells was evaluated. In Table 7, the degree of proliferation in the compound-treated groups is expressed as percent of the degree of proliferation in untreated control group. The effective concentrations of test compounds increasing cell proliferation by 50% (EC50) is also listed.

[14] = test system: human pulmonary artery endothelial cell (PAEC); assay: VEGF-induced proliferation assay, PAEC (PrxII siRNA); assay type: cell-based; conditions: for Degree of PAEC proliferation: VEGF-A 25 ng/mL, percent of untreated control
Procedure: as §2, with “HAECs” for “HASMCs”, “PAECs” for “PASMCs”, “EBM” for “SmBM”, “VEGF-A” for “PDGF-BB”
as §3, §5

[15] = Measurement of redox potential (DTT redox buffers, HPLC); assay type: physicochemical; conditions: DTT(Red)/DTT(Ox) redox buffers, 3 h, 30° C., 50% reduction of test compound
Procedure: A test compound (10 mM) was diluted 20-fold with each redox buffer solution and incubated for 3 h in a 30° C. water bath. Then, compounds were analyzed by HPLC. The area of peaks corresponding to the oxidized and reduced forms of test compound based on specific retention time was calculated and plotted as percent of total peak area against the Nernst equation value (mV) at x-axis. The Nernst equation value corresponding to 50% reduction of test compound was set as the midpoint redox potential value for test compound.
The redox potential values of the test compounds were analyzed based on the potential values established in redox buffer solutions where reduced and oxidized DTT are mixed at various ratios.

[16] = test system: hepatocytes; assay: Cytotoxicity test, liver cell; conditions: read-out: Cell cytotoxicity (CC50) Liver cell; concentration corresponding to 50% cell viability
Procedure: as §6

[17] = test system: human aortic endothelial cells (HAEC); assay: Cytotoxicity assay (WST-1), endothelial cell; conditions: read-out: Cell cytotoxicity (CC50) Endothelial cell; 24 h, concentration corresponding to 50% cell viability
Procedure: as §7, §8

[18] = test system: human aortic smooth muscle cells (HASMC); assay: Cytotoxicity assay (WST-1), smooth muscle cell; conditions: read-out: Cell cytotoxicity (CC50) Smooth muscle cell; 24 h, concentration corresponding to 50% cell viability
Procedure: as §7, §8

[19] = Homo sapiens, Endothelial cell, effective concentration increasing cell proliferation by 50%, VEGF-stimulated

With `CN1C(=O)C2CSSC1(C)C(=O)N2Cc1nc2ccccc2s1` (stereo not drawn) [Compound 15, 6-(benzo[d]thiazol-2-ylmethyl)-1,8-dimethyl-2,3-dithia-6,8-diazabicyclo[3.2.2]nonane-7,9-dione] the CC50 [1] was 157 µM, the CC50 at 24 h [2] was 114 µM and the CC50 at 24 h [3] was 98.5 µM.
In the case of thioredoxin [Trx], the “Midpoint redox potential (E m)” value [4] is listed as −270 mV.
With `CN1C(=O)C2CSSC1(C)C(=O)N2Cc1cccs1` (stereo not drawn) [Compound 14, 1,8-dimethyl-6-(thiophen-2-ylmethyl)-2,3-dithia-6,8-diazabicyclo[3.2.2]nonane-7,9-dione] the “Peroxidase activity for H2O2 reduction” value [5] was 4.78 nmol/min and the CC50 at 24 h [3] was > 500 µM.
For `CN1C(=O)C2(Cc3ccccc3)SSCC1C(=O)N2C` (stereo not drawn) [Compound 19, 1-benzyl-6,8-dimethyl-2,3-dithia-6,8-diazabicyclo[3.2.2]nonane-7,9-dione], the “Peroxidase activity for H2O2 reduction” value [5] was 5.69 nmol/min, the “Effect on phosphorylation of Tyr 857 on PDGFR” value [6] was “strongly abolish the phosphorylation” and the CC50 [7] was > 500 µM. The CC50 [8] was > 500 µM and the CC50 [9] was > 500 µM.
In the case of `Cc1cccc(CN2C(=O)C3(C)SSCC2C(=O)N3C)n1` (stereo not drawn) [Compound 12, 1,8-dimethyl-6-((6-methylpyridin-2-yl)methyl)-2,3-dithia-6,8-diazabicyclo[3.2.2]nonane-7,9-dione], the “Peroxidase activity for H2O2 reduction” value [5] is reported as 4.94 nmol/min, the CC50 [7] is reported as > 500 µM and the CC50 [9] is reported as > 500 µM.
For `CN1CCN2C(=O)C3CSSC2(C1)C(=O)N3C` (stereo not drawn) [Compound 23], the “Peroxidase activity for H2O2 reduction” value [5] was 8.81 nmol/min, the “Effect on phosphorylation of Tyr 857 on PDGFR” value [6] was “strongly abolish the phosphorylation” and the “Effect on phosphorylation of Tyr 1175 on VEGFR2” value [10] was “strongly abolish the phosphorylation”. For the same compound, the “Degree of HASMC proliferation” value ([11]; 2.5 nM) was 89.8%, the “Degree of HASMC proliferation” value ([11]; 5 nM) was 54.3% and the “Degree of HASMC proliferation” value ([11]; 10 nM) was 34.4%. The “Degree of HASMC proliferation” value ([11]; 25 nM) was 20.4%, the IC50 ([11]; Homo sapiens, HASMC, 50% growth inhibition, PDGF-stimulated) was 0.00685 µM and the “Degree of PASMC proliferation” value ([12]; 2.5 nM) was 70.8%. For the same compound, the “Degree of PASMC proliferation” value ([12]; 5 nM) was 43.3%, the “Degree of PASMC proliferation” value ([12]; 10 nM) was 32.9% and the “Degree of PASMC proliferation” value ([12]; 25 nM) was 14.6%. For the same compound, the “Degree of PASMC proliferation” value ([12]; 50 nM) was 3.2%, the “Degree of PASMC proliferation” value ([12]; 100 nM) was 0.0% and the IC50 ([12]; Homo sapiens, PASMC, 50% growth inhibition, PDGF-stimulated) was 0.00476 µM. The “Degree of HAEC proliferation” value ([13]; 2.5 nM) was 109.4%, the “Degree of HAEC proliferation” value ([13]; 5 nM) was 122.6% and the “Degree of HAEC proliferation” value ([13]; 10 nM) was 161.3%. The “Degree of HAEC proliferation” value ([13]; 25 nM) was 187.6%, the “Degree of HAEC proliferation” value ([13]; 50 nM) was 177.1% and the “Degree of HAEC proliferation” value ([13]; 100 nM) was 133.0%. The EC50 [13, 19] was 0.00972 µM, the “Degree of PAEC proliferation” value ([14]; 2.5 nM) was 109.2% and the “Degree of PAEC proliferation” value ([14]; 5 nM) was 122.9%. The “Degree of PAEC proliferation” value ([14]; 10 nM) was 148.3%, the “Degree of PAEC proliferation” value ([14]; 25 nM) was 173.3% and the “Degree of PAEC proliferation” value ([14]; 50 nM) was 155.3%. The “Degree of PAEC proliferation” value ([14]; 100 nM) was 133.9%, the EC50 [14, 19] was 0.0052 µM and the CC50 [7] was > 500 µM. For the same compound, the CC50 [9] was 123 µM.
In the case of `N[C@@H](CCC(=O)N[C@@H](CS)C(=O)NCC(=O)O)C(=O)O` [GSH], the “Midpoint redox potential (E m)” value [4] is given as −240 mV.
For `CN1C(=O)C2CSSC1(C)C(=O)N2Cc1cnn(C)c1` (stereo not drawn) [Compound 13, 1,8-dimethyl-6-((1-methyl-1H-pyrazol-4-yl)methyl)-2,3-dithia-6,8-diazabicyclo[3.2.2]nonane-7,9-dione], the “Peroxidase activity for H2O2 reduction” value [5] was 4.78 nmol/min, the CC50 [7] was > 500 µM and the CC50 [9] was > 500 µM.
For `O=C1C2CSSC3(CCCN13)C(=O)N2Cc1ccccc1` (stereo not drawn) [Compound 7, 11-benzyltetrahydro-5H,7H-4,9a-(epiminomethano)pyrrolo[2,1-c][1,2,4]dithiazepine-5,10-dione], the “Peroxidase activity for H2O2 reduction” value [5] was 3.83 nmol/min, the “Midpoint redox potential (E m)” value [15] was −300.98 mV and the CC50 [16] was > 500 µM. For the same compound, the CC50 [17] was > 500 µM and the CC50 [18] was > 500 µM.
